Like-named read-outs stand apart in the source and are kept apart here.
Key:
Type in all cases: cell-based
human P2Y2-R = molecular target: T1, human P2Y2-R (Homo sapiens, UniProt P41231); experiment: [Ca^2+]i response of 1321N1 astrocytoma cells expressing P2Y2-R GFP; conditions: for EC50: agonist, read-out: EC50 at the P2Y2 receptor; for activity at the P2Y2 receptor: isomer A of APPCCl2P-α-S at 100 μM
T1 construct: expressed in transfected cells; host or cells: 1321N1 astrocytoma cells
Method: GFP constructs of human P2Y2-R, P2Y1-R and P2Y11-R were stably expressed in 1321N1 astrocytoma cells, which lack endogenous expression of P2X- and P2Y-receptors. The respective cDNA of the receptor gene was cloned into a pEGFPN1 vector and after transfection, using FuGENE 6 Transfection Reagent (Roche Molecular Biochemicals, Mannheim, Germany), cells were selected with 0.5 mg/ml G418 (geneticine; Merck Chemicals, Darmstadt, Germany) and grown in DMEM supplemented with 10% serum (FCS), 100 U/ml penicillin and 100 U/ml streptomycin at 37° C. and 5% CO2. The expression and cell membrane localization of the respective P2Y receptors was confirmed through the analysis of the GFP fluorescence. The functionality of the expressed GFP-labeled receptor in cells was verified by recording a change of [Ca^2+]i after stimulation with the appropriate receptor agonist.
1321N1 astrocytoma cells transfected with the respective plasmid for P2Y-R-GFP expression plated on coverslips (22 mm diameter) and grown to approximately 80% density, were incubated with 2 μM fura 2/AM and 0.02% pluronic acid in Na-HBS buffer (Hepes buffered saline: 145 mM NaCl, 5.4 mM KCl, 1.8 mM CaCl2, 1 mM MgCl2, 25 mM glucose, 20 mM Hepes/Tris pH 7.4) for 30 min at 37° C. The cells were superfused (1 ml/min, 37° C.) with different concentrations of nucleotide in Na-HBS buffer. The nucleotide-induced change of [Ca^2+] was monitored by detecting the fluorescence intensities with excitations at 340 nm and 380 nm. Only GFP-labeled cells were analyzed. Microsoft Excel (Microsoft Corp., Redmond, Wash., USA) and SigmaPlot (SPSS Inc., Chicago, Ill., USA) were used to derive the concentration-response curves and EC50 values from the average response amplitudes obtained in at least three independent experiments (Ecke et al., 2006; Ecke et al., 2008). Only cells with a clear GFP-signal and with the typical calcium response kinetics upon agonist pulse application were included in the data analysis. The nucleotide induced change of [Ca^2+]i was monitored by detecting the respective emission intensity of fura 2/AM at 510 nm with 340 nm and 380 nm excitations (Ubl et al., 1998). The average maximal amplitude of the responses and the respective standard errors were calculated from ratio of the fura 2/AM. The GFP-tagged P2Y receptors are suitable for pharmacological and physiological studies, as previously reported (Tulapurkar et al., 2004; Tulapurkar et al., 2006; Zylberg et al., 2007).

PC12 cells = experiment: Inhibition of Fe(II)-induced ROS formation in PC12 cells (DCFH-DA); conditions: read-out: IC50 inhibition of ROS formation
Method: In this study, nucleoside 5′-phosphorothioate analogues were explored as inhibitors of Fe(II)-induced oxidative stress in PC12 cells used as a neuronal model. Reduction of ROS production in PC12 cells by each one of the tested analogues was measured by DCFH-DA, a radical sensitive indicator. After DCFH-DA was removed, the tested analogue was added to the cells at a final concentration of 0.2-200 μM. Oxidation was initiated by the addition of FeSO4 (0.16 μM) to the wells. The plates were incubated for 1 h at 37° C., during which the absorbance was read by a Tecan fluorometer at 485/530 nm.

cortical neurons = experiment: Neuroprotection of cultured cortical neurons exposed to FeSO4 or FeSO4/H2O2
Method: FIGS. 10A-10B show the neuroprotective effect of ATP-γ-S and GDP-β-S (0.2-200 μM, t=24 h) as evaluated by MTT production in cortical neurons exposed for 24 h to either FeSO4 at final concentration of 3 μM (10A); or both FeSO4 (3 μM) and H2O2 (100 μM) (10B). The results shown are the mean±SEM of three independent experiments in quadruplicate.
Cultured cortical neurons in 96-well plates were treated with different concentrations of FeSO4, or hydrogen peroxide and FeSO4, for 24 h at 37° C. Following exposure to various insults, the cells were treated with ATP-γ-S and GDP-β-S as described. Cells were subsequently incubated for a further 18-24 h as indicated before being assessed for viability measures. Neurons were treated with ATP-γ-S and GDP-β-S at three concentrations ([…]) simultaneously with 1.5, 3 or 6 μM FeSO4 for 24 h. Following 24 h incubation in the presence of both FeSO4 and ATP-γ-S and GDP-β-S cell viability measures were assessed by XTT assay. All experiments were performed in triplicate.
FeSO4 induced a concentration-dependent decrease in cell viability as assessed by XTT assay and morphological assessment following 24 h of exposure (FIG. 9). The neuroprotective effect of ATP-γ-S and GDP-β-S (due to iron chelation) was evaluated in cortical neurons exposed to FeSO4 for 24 h (FIG. 10).

T1 sequence (P41231 whole entry): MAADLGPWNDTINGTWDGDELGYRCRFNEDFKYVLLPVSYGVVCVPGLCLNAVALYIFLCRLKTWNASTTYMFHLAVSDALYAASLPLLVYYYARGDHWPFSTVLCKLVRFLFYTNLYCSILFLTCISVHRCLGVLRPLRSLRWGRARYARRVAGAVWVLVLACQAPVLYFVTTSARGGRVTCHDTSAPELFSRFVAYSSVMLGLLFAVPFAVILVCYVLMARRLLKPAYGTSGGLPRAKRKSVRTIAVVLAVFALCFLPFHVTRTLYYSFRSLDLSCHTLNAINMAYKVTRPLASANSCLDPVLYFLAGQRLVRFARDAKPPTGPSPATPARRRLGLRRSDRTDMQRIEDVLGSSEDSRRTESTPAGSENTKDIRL

## Nc1ncnc2c1ncn2[C@@H]1O[C@H](COP(O)(=S)OP(=O)(O)C(Cl)(Cl)P(=O)(O)O)[C@@H](O)[C@H]1O (single isomer, unassigned) [APPCCl2P-α-S, adenosine 5′-[Pα-thio]-β,γ-(dichloromethylene)triphosphate]
Human P2Y2-R
  EC50: > 10000 nM

## Nc1ncnc2c1ncn2[C@@H]1O[C@H](COP(O)(=S)OP(=O)(O)C(Cl)(Cl)P(=O)(O)O)[C@@H](O)[C@H]1O (single isomer, unassigned; isomer a) [APPCCl2P-α-S (isomer A), adenosine 5′-[Pα-thio]-β,γ-(dichloromethylene)triphosphate]
Human P2Y2-R
  activity at the P2Y2 receptor: no activity as agonist

## Nc1ncnc2c1ncn2[C@@H]1O[C@H](COP(=O)(O)OP(O)(O)=S)[C@@H](O)[C@H]1O [ADP-β-S, adenosine 5′-[β-thio]diphosphate, reference compound]
PC12 cells; PC12 cells, FeSO4 0.16 μM, 1 h, DCFH-DA
  IC50: 26000 nM
Cortical neurons; Table 2, neuroprotection of primary neurons exposed to FeSO4, read-out: IC50
  IC50: 1200 ± 7 nM

## Nc1ncnc2c1ncn2[C@@H]1O[C@H](COP(=O)(O)CP(=O)(O)OP(O)(O)=S)[C@@H](O)[C@H]1O [APCPP-γ-S, adenosine 5′-[Pγ-thio]-α,β-methylenetriphosphate]
PC12 cells; Rattus norvegicus, PC-12, 1 h
  IC50: 160 nM
Cortical neurons; Cortical neurone, read-out: IC50 protection from damage caused by FeSO4
  IC50: 40 nM
Human P2Y2-R
  EC50: > 10000 nM
  activity at the P2Y2 receptor: neither agonist nor antagonist
